Reference: US6747061B2, “N-substituted dithiocarbamates for the treatment of biological disorders” (AtheroGenics, Inc., priority 2000, dated 2004)

System: eotaxin
Test: Eotaxin assay: enzyme immunoassay of TNF-α and IL-4 induced eotaxin expression in BEAS-2B cells
Format: cell-based
Conditions: Homo sapiens, TNF 10 ng/ml + IL-4, approximately 16 hours
Method: The eotaxin assay is an enzyme immunoassay to measure tumor necrosis factor alpha (TNF-α) and interleukin-4 (IL-4) induced expression of eotaxin in a human epithelial cell line (BEAS-2B).
BEAS-2B cells purchased from ATCC and maintained in DMEM/F12 plus 10% serum and penicillin plus streptomycin. In a typical experiment, cells were seeded in 96-well plates. The next day cells were stimulated with TNF (10 ng/ml)+IL-4 ([…]) in the presence or absence of compounds dissolved in dimethylsulphoxide (DMSO) in DMEM/F12 plus 1% rabbit serum albumin (RSA). To establish a dose curve for each compound, three concentrations in 2 fold increments were used. Cells were exposed to cytokines and compounds for approximately 16 hours. The next day, the cells were examined under microscope to score for visual signs of toxicity. The culture media was used to measure eotaxin level.
100 μl of anti-human eotaxin monoclonal antibody (3 μg/ml) purchased from R & D Systems was used to coat 96-well plates overnight at room temperature. […] 2N sulphuric acid stopped the color development and data were collected by a microplate reader set at O.D. 450 nm. The results were expressed as the percentage of control sample (cells stimulated by TNF without any compound).

IC50: 6 µM
Compound: COC(=O)CCCSC(=S)NCC1CCCO1 (stereo not shown) [NDE, 4-(tetrahydrofuran-2-ylmethylthiocarbamoylsulfanyl)-butyric acid methyl ester]
